Experimental data as given in US11613750B2, “Methods of reducing virus molecule levels” (priority 2019, dated 2023).

Tests used:
HBsAg = conditions: HepG2.2.15 cells; for EC50: read-out: EC50, Extracell. HBsAg reduction
Method: (§1) Cell viability was assessed by ATP levels determined using the CellTiter-Glo reagent and the results normalized to the level in mock-treated cells. HBsAg levels were quantified using ELISA and the data normalized to the level in the mock-treated cells.
The cellular proteins GRP78/BIP, SRSF1, HNRNPA2B1, RPLP1, and RPLP2 were identified as having roles in HBV replication and infection. Various siRNAs and combinations thereof targeting the RNAs encoding these proteins were contacted with HepG2.2.15 cells at a final concentration of 7.5 nM.
The EC50 values of several siRNAs and combinations of siRNAs targeting HNRNPA2B1, GRP78, RPLP1, RPLP2, and/or SRSF1 were determined with respect to the ability to reduce HBsAg levels in HepG2.2.15 cells.
(§2) The ability of siRNAs targeting host factors that then results in the reduced production of multiple HBV molecules was evaluated by quantifying the amount of HBsAg, HBeAg, and Core protein produced by HepG2.2.15 cells after contacting with 10 nM of siRNAs that target HNRNPA2B1, GRP78, RPLP1, RPLP2, and SRSF1. We also contacted the cells with 5 nM of each set of siRNAs that targets both RPLP1 and RPLP2. The level of HBsAg, HBeAg, and Core were all determined using ELISAs.
(§3) The library of siRNAs of Example A5 were tested for the reduction of HBsAg secreted by HepG2.2.15 cells and in HBV virions.

HepG2.2.15 cells = assay: HepG2.2.15 cell viability, CellTiter-Glo; conditions: for CC50: read-out: CC50, HepG2.2.15 cell viability, highest concentration tested 80 nM
Method: as §1
The effects on cell viability were quantified using the CellTiter-Glo reagent. All data were normalized to the amount of protein produced by mock-treated cells.
as §3

HBeAg = conditions: for HBeAg reduction HepG2.2.15 cells: 10 nM siRNA transfected into cells
Method: HBeAg in the cell culture media was assessed using ELISAs.
as §2, §3

RPLP2 mRNA = assay: Target mRNA reduction by RT-qPCR in HepG2.2.15 cells; assay type: cell-based, human; conditions: 10 nM siRNA
From the text: The siRNAs identified as described in Example A6 should function by a mechanism that includes being loaded in the RISC complex to cleave the cognate mRNA, leading to the degradation of the mRNA. To examine whether the siRNAs are effective in reducing the target mRNA, we used reverse transcription coupled with quantitative polymerase chain reaction (RT-qPCR) to assess the level of the target mRNA in HepG2.2.15 cells. All 32 siRNAs described in Table 2 reduced the mRNA by more than 75% (Table 3).

RPLP2 protein = assay: Target protein reduction by Western blot in HepG2.2.15 cells; assay type: cell-based, human; conditions: 10 nM siRNA, 72 h
Method: The host factors likely function in viral infection as proteins. Therefore, we determined whether the siRNAs could decrease the amounts of the target protein. Cell transfected with 10 nM of each siRNA for 72 h were lysed and the target proteins identified using Western blots probed with target-specific antibodies. The effective siRNAs described in Table 3 reduced the levels of the proteins by between 28 and 92% of the mock-treated samples. The reduction in the proteins is less than the reduction of the target mRNA, likely due to the proteins have prolonged half-life and that more time is needed for their degradation. […] We reason that this is due to RPLP1 and RPLP2 functioning as heterodimers such that a decrease of one protein increases the vulnerability of the other protein to degradation. Similar concomitant decrease of the proteins was reported by Campos et al. (17). Finally, the levels of two cellular proteins that are not targeted by the siRNAs, P54nrb and GAPDH, were unaffected.

HCoV-OC43 = assay: OC43 virion RNA, Branched DNA assay, infected HCT8 cells; assay type: cell-based, human coronavirus OC43; conditions: for OC43 vRNA reduction siRNA and siGRP78: 10 nM siRNA along with 10 nM of siRNA targeting GRP78, HCT8 cells; for OC43 vRNA reduction: 10 nM siRNA, HCT8 cells
Method: The siRNAs were transfected in the HCT8 cells at a final concentration of 10 nM. A positive control for the inhibition of Coronavirus infection, Remdesivir (Rem), was used at 0.9 μM. The virion RNAs (vRNAs) were quantified using a Branched DNA assay specific for OC43 RNA.
The two siRNAs are those referred to by compound number (see Table 2) in the horizontal bar, along with siRNA targeting GRP78, siGRP78. A positive control for the inhibition of Coronavirus infection, Remdesivir (Rem), was used at 0.9 μM. The vRNAs were quantified using a Branched DNA assay specific for OC43 RNA.
The siRNAs listed in Table 2 were transfected into human colon epithelial HCT8 cells and the amount of OC43 virion produced was quantified. In these assays, the OC43 vRNA was quantified using a Branched DNA assay (QuantiGene gene expression assay: ThermoFisher). As a positive inhibitory control, the infected cells were treated with Remdesivir. […] Examples of the inhibition of OC43 vRNA are illustrated in FIG. 5A.
A combination of siRNAs targeting the host factor should more robustly reduce OC43 virion production. To illustrate this, HCT8 cells were transfected with 10 nM of siRNAs from Table 2 along with 10 nM of siRNA targeting GRP78. The virion RNAs produced were quantified using the Branched DNA assay. […] A combination of siRNAs targeting host factors GRP78, SRSF1, RPLP1 and RPLP2 can lead to significant reduction in the production of human Coronavirus virion RNA from infected cells.

Substance	HBsAg level, dose response (HBsAg; FIG. 5A)	EC50 (HBsAg) [nM]	CC50 (HepG2.2.15 cells) [nM]	cytotoxicity / cell viability, siRNA library (HepG2.2.15 cells; up to the highest concentration tested, 80 nM)	HBeAg reduction HepG2.2.15 cells (HBeAg) [%]	HBeAg level, siRNA library (HBeAg; HepG2.2.15 cells, Example A6, FIG. 5A)	Target RNA reduction in HepG2.2.15 cells (RPLP2 mRNA) [%]	Target protein reduction in HepG2.2.15 cells (RPLP2 protein) [%]	OC43 vRNA reduction siRNA and siGRP78 (HCoV-OC43) [%]	OC43 vRNA reduction (HCoV-OC43) [%]
34 (GCUGAAUGGAAAAAACAUUGATTAAUGUUUUUUCCAUUCAGCUCTT; siRNA; Self-complementary hairpin strand, chemistry not given here, further chemistry not given here; listed as Homo sapiens) [compound 34]	dose-dependent reduction of HBV S-antigen (HBsAg)	0.15	> 80	without affecting cell viability	74 ± 4	inhibited the levels of HBsAg and HBeAg	93 ± 1	62.5 ± 3	86 ± 5	86 ± 3
35 (GGGAUUUGGCCUUUUUGAUUATTAUCAAAAAGGCCAAAUCCCAUTT; siRNA; Self-complementary hairpin strand, chemistry not given here, further chemistry not given here; listed as Homo sapiens) [compound 35]	–	0.01	> 80	–	69 ± 3	–	98 ± 0	78 ± 16	96 ± 1	94 ± 6
36 (CCUUUUUGAUUAAAUUCCUGCTTAGGAAUUUAAUCAAAAAGGCCTT; siRNA; Self-complementary hairpin strand, chemistry not given here, further chemistry not given here; listed as Homo sapiens) [compound 36]	–	9.2	> 80	–	26 ± 5	–	94 ± 1	57 ± 3	87 ± 6	–
37 (CUGAAUGGAAAAAACAUUGAAUUUUCAAUGUUUUUUCCAUUCAGUU; siRNA; Self-complementary hairpin strand, chemistry not given here, further chemistry not given here; listed as Homo sapiens) [compound 37]	–	0.049	> 80	–	53 ± 3	–	98 ± 1	71 ± 10	88 ± 5	94 ± 2
38 (AGUGUACCUGCUGGUGGGGCUUUAGCCCCACCAGCAGGUACACUUU; siRNA; Self-complementary hairpin strand, chemistry not given here, further chemistry not given here; listed as Homo sapiens) [compound 38]	–	0.076	> 80	–	–	–	96 ± 1	55 ± 2	61 ± 14	39 ± 6
39 (AGAGGAGAAGAAAGAUGAGAAUUUUCUCAUCUUUCUUCUCCUCUUU; siRNA; Self-complementary hairpin strand, chemistry not given here, further chemistry not given here; listed as Homo sapiens) [compound 39]	–	0.103	> 80	–	59 ± 4	–	96 ± 1	48 ± 9	86 ± 6	91 ± 2
40 (AGUCUGAAGAGUCAGAUGAUGUUCAUCAUCUGACUCUUCAGACUUU; siRNA; Self-complementary hairpin strand, chemistry not given here, further chemistry not given here; listed as Homo sapiens) [compound 40]	–	0.114	> 80	–	56 ± 3	–	98 ± 1	54 ± 2	79 ± 15	89 ± 5
41 (AUGGGAUUUGGCCUUUUUGAUUUAUCAAAAAGGCCAAAUCCCAUUU; siRNA; Self-complementary hairpin strand, chemistry not given here, further chemistry not given here; listed as Homo sapiens) [compound 41]	–	0.208	> 80	–	40 ± 4	–	97 ± 1	58 ± 2	81 ± 7	89 ± 5
42 (CCCAGCGCCAAGGACAUCAAGUUCUUGAUGUCCUUGGCGCUGGGUU; siRNA; Self-complementary hairpin strand, chemistry not given here, further chemistry not given here; listed as Homo sapiens) [compound 42]	–	0.385	> 80	–	42 ± 2	–	95 ± 1	50 ± 4	85 ± 7	57 ± 5
43 (GUAUCGAGGCGGACGACGACCUUGGUCGUCGUCCGCCUCGAUACUU; siRNA; Self-complementary hairpin strand, chemistry not given here, further chemistry not given here; listed as Homo sapiens) [compound 43]	–	0.182	> 80	–	70 ± 5	–	94 ± 2	45 ± 4	92 ± 2	94 ± 1
44 (UGAGCUGAAUGGAAAAAACAUUUAUGUUUUUUCCAUUCAGCUCAUU; siRNA; Self-complementary hairpin strand, chemistry not given here, further chemistry not given here; listed as Homo sapiens) [compound 44]	–	0.084	> 80	–	30 ± 4	–	99 ± 1	59 ± 11	92 ± 2	–
